In patent US10570149B2, “Tricyclic heterocylic derivatives” (MERCK PATENT GMBH, priority 2016, dated 2020) one finds IC50 data, which are given here for 15 molecules.

Bounds are passed on as bounds.

One assay addresses T1, ATR/ATRIP (Homo sapiens, UniProt Q13535).
T1 construct: human ATR, full length, GenBank ID: NM_001184.3; p53: Sf21 insect cells
As to the kind of experiment: ATR/ATRIP kinase assay (TR-FRET, p53 phosphorylation). The assay is classed as biochemical. The settings on record: Table 1, class symbols; read-out: ATR-ATRIP IC50.

Assay [1] concerns phosphorylation of H2AX (gH2AX) in U2OS-TopBP1-ER cells. Description: gH2AX-TopBP1ER cellular assay. It is filed as cell-based. An excerpt:
gH2AX-TopBP1ER Cellular Assay
ATR activity is restricted to replicating cells and many of its targets can also be phosphorylated by other PIKKs. These restrictions have limited the development of selective cellular assays in the past. In order to overcome these limitations, a previously developed genetically engineered cellular system in which ATR, and only ATR, can be activated at will in every cell (Toledo et al Genes Dev. 22, 297-302 2008) was used. In this system, the addition of 4-hydroxytamoxifen (4-OHT), promotes the nuclear translocation of a fragment of TopBP1 which then activates ATR. The phosphorylation of H2AX that follows 4-OHT addition in these cells is a direct and selective readout of ATR activity, which is not influenced by the rest of PIKKs. This property has been used in a screen for compounds with ATR inhibitory capacity. U2OS-TopBP1-ER cells stably express the TopBP1 activation domain (aa 978-1286) fused to a mutated estrogen receptor ligand binding domain. Nuclear accumulation of the TopBP1-ER-LBD fusion protein is induced by the synthetic ER antagonist 4-hydroxytamoxifen (4-OHT) (and not by natural ER agonists) mediating specific ATR activation that is independent of DNA damage or cell cycle. In the assay phosphorylation of the ATR substrate H2AX (“gH2AX”) at Serin 139 is detected using an immune-cytochemical procedure and high content imaging. For the assay U2OS-TopBP1-ER cells are plated in culture medium (DMEM high Glucose (no phenol red), 2 mM Glutamax, 1 mM Pyruvate, 10% FCS into Greiner 384 well plates, black, μclear #781090 (4000 cells/well/30 μl) and incubated for at least 20 hours at 37° C., 10% CO2 and 90% rH. Diluted test compounds (1 nM-30 μM final) and 4-OHT (1 μM final) are added simultaneously and cells are incubated for 2 h at 37° C. After fixation with 4% formaldehyde and permeabilisation with 0.2% Triton X-100 a complete immunocytochemical procedure is performed using a specific anti-gH2AX-antibody (Millipore 05-636, clone JBW301) and fluorescently labelled secondary antibody (Alexa Fluor® 488 goat anti-mouse F(ab′)2 fragment, Invitrogen A11017) and parallel nuclear staining for cell counting. The nuclear localised gH2AX signal is detected on an ImageXpress Ultra confocal high content reader and reported as % positive cells (nuclei).

For assay [2], the system named is phosphorylation of Chk1 (Ser 345) in HT29 colon adenocarcinoma cells. As to the kind of experiment: pCHK1 cellular assay. The assay is classed as cell-based. The note with it: Homo sapiens. An excerpt: Chk1 kinase acts downstream of ATR and has a key role in DNA damage checkpoint control. Activation of Chk1 involves phosphorylation of Ser317 and Ser345 (regarded as the preferential target for phosphorylation/activation by ATR) and occurs in response to blocked DNA replication and certain forms of genotoxic stress. Phosphorylation at Ser 345 serves to localize Chk1 to the nucleus following checkpoint activation.
This assay measures a decrease in phosphorylation of Chk1 (Ser 345) in HT29 colon adenocarcinoma cells following treatment with compound and hydroxyurea (which promotes fork stalling because of dNTP depletion) and using an immunocytochemical procedure and high content imaging.
For the assay HT29 cells are plated in culture medium (DMEM high Glucose (no phenol red), 2 mM Glutamax, 1 mM Pyruvate, 10% FCS into Greiner 384 well plates, black, μclear #781090 (2500 cells/well/30 μl) and incubated for at least 20 hours at 37° C., 10% CO2 and 90% rH. Diluted test compounds (1 nM-30 μM final) and hydroxyurea (3 mM final) are added simultaneously and cells are incubated for 4 h at 37° C. After fixation/prmeabilisation with 100% MeOH (−20° C. cold) and permeabilisation with 0.2% Triton X-100 a complete immunocytochemical procedure is performed using a specific anti-pChk1 antibody (Cell Signaling, #2348BF) and fluorescently labelled secondary antibody (Alexa Fluor® 488 goat anti-rabbit F(ab′)2 fragment, Invitrogen A11070) and parallel nuclear staining for cell counting.
The nuclear localised pChk1 signal is detected on an ImageXpress Ultra confocal high content reader and reported as % positive cells (nuclei).

Where [3] appears, read: HT-29, Table 1, class symbols, hydroxyurea.

T1 sequence (Q13535 whole entry): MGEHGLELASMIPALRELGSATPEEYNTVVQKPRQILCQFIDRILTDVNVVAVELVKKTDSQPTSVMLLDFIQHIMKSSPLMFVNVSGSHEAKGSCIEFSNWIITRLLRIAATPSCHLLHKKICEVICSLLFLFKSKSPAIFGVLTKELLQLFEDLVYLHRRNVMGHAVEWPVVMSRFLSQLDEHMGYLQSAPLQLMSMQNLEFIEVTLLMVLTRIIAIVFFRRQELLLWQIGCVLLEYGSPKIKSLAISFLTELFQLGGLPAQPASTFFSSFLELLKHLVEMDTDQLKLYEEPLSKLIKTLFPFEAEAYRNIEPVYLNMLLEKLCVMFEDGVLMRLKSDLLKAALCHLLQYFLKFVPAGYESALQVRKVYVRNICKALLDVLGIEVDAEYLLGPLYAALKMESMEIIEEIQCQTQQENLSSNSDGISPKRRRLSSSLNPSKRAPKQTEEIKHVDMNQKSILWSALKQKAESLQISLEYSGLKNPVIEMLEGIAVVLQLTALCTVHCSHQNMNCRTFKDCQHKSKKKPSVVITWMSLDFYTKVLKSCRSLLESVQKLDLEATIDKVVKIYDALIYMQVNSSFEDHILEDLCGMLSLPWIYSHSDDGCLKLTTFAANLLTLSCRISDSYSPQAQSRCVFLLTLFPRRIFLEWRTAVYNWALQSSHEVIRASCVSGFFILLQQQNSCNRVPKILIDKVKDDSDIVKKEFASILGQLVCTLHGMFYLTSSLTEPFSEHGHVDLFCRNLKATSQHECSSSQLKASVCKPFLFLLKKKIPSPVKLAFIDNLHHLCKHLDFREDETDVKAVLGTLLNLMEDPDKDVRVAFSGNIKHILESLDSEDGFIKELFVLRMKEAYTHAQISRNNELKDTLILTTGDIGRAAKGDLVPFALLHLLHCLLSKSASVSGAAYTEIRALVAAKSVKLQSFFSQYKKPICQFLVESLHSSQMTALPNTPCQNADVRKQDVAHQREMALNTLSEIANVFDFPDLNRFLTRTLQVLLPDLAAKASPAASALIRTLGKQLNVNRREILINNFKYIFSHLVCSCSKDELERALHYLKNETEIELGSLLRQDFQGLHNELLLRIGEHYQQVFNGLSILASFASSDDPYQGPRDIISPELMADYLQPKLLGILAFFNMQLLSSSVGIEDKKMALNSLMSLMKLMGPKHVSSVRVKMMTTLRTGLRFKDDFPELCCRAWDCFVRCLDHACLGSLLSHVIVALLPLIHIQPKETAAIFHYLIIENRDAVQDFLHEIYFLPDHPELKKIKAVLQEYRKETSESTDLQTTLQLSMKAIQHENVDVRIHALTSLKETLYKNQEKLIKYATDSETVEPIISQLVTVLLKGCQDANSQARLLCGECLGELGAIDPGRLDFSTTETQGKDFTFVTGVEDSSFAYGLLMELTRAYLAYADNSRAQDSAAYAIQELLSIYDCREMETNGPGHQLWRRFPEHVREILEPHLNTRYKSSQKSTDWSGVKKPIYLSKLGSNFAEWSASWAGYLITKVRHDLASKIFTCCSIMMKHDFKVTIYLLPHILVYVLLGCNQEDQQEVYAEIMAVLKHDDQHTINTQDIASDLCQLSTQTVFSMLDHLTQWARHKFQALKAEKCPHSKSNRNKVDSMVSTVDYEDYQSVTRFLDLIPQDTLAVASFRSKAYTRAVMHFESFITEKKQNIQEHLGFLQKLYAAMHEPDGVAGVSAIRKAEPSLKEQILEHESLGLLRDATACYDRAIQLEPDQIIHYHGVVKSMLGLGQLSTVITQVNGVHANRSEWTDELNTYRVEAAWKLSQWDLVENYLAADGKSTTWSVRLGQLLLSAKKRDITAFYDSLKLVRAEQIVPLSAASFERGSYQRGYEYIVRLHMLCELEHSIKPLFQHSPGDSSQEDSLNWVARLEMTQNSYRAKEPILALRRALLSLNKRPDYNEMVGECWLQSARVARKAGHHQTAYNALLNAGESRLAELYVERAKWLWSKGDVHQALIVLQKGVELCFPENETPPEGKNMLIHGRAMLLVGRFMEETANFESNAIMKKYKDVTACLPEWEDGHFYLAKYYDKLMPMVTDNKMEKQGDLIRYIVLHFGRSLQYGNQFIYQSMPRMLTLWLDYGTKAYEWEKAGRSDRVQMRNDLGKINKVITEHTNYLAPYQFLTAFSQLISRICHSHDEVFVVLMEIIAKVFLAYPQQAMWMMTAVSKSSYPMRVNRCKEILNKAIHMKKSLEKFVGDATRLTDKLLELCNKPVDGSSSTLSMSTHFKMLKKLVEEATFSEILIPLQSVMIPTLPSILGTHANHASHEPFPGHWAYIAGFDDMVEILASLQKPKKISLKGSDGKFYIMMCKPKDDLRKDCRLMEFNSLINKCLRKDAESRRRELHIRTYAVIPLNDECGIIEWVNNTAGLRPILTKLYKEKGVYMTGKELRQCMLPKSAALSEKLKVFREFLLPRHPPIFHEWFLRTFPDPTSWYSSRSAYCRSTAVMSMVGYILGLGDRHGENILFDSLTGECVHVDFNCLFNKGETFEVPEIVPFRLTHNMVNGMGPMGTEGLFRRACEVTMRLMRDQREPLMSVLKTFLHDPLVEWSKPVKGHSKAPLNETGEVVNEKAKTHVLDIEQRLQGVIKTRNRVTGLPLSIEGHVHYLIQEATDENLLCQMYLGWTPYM
T1 sequence (Q8WXE1 whole entry partner): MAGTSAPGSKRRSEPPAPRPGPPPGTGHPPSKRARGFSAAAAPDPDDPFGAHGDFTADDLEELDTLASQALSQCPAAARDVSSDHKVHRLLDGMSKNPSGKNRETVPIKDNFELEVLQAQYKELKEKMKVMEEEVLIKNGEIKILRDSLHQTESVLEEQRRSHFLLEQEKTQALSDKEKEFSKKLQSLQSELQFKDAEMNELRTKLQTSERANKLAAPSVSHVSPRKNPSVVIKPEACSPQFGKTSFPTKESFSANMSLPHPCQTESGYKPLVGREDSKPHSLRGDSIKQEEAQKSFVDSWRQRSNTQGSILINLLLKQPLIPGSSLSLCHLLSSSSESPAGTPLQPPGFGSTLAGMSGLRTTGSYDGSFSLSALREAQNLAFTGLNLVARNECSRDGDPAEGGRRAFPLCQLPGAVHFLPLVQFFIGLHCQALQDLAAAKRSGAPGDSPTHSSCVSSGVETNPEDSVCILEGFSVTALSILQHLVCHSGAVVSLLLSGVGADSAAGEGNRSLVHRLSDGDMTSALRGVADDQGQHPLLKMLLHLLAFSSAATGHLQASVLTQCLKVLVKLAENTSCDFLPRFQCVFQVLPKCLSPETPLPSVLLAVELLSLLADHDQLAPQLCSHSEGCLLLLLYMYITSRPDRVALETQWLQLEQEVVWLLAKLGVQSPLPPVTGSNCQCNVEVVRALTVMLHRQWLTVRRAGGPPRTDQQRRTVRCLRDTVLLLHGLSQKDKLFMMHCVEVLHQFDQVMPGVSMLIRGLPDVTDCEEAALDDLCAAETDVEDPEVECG

Consider `C[C@@H]1COC[C@H]2COc3c(nc(-c4c(F)cnc5[nH]ccc45)nc3C(C)(C)O)N21` [A7, 2-[(5R,8aS)-3-(5-Fluoro-1H-pyrrolo[2,3-b]pyridin-4-yl)-5-methyl-5,6,8a,9-tetrahydro-8H-7,10-dioxa-2,4,4b-triaza-phenanthren-1-yl]-propan-2-ol], for which the IC50 at ATR/ATRIP lay in the range of 1 to 10 nM; in assay [1] (Table 1, class symbols, 4-OHT), 100 to 1000 nM; in assay [2] (setting [3]) it was 100 to 1000 nM.

`C[C@@H]1COC[C@H]2COc3c(nc(-n4c(N)nc5ccccc54)nc3C(C)(C)S(C)(=O)=O)N21` [A11, 1-[(5R,8aS)-1-(1-Methanesulfonyl-1-methyl-ethyl)-5-methyl-5,6,8a,9-tetrahydro-8H-7,10-dioxa-2,4,4b-triaza-phenanthren-3-yl]-1H-benzimidazol-2-ylamine]: the IC50 at ATR/ATRIP is less than 1 nM; in assay [1] (Table 1, class symbols, 4-OHT), 100 to 1000 nM; in assay [2] (setting [3]), 10 to 100 nM.

In the case of `CNc1nccn1-c1nc2c(c(C(C)(C)S(C)(=O)=O)n1)OC[C@@H]1COC[C@@H](C)N21` [A10, {1-[(5R,8aS)-1-(1-Methanesulfonyl-1-methyl-ethyl)-5-methyl-5,6,8a,9-tetrahydro-8H-7,10-dioxa-2,4,4b-triaza-phenanthren-3-yl]-1H-imidazol-2-yl}-methyl-amine], the IC50 at ATR/ATRIP lay within 10 to 100 nM; in assay [1] (Table 1, class symbols, 4-OHT), 100 to 1000 nM; in assay [2] (setting [3]), 10 to 100 nM.

As to `Cc1nc2ccccc2n1-c1nc2c(c(C(C)(C)S(C)(=O)=O)n1)OC[C@@H]1COC[C@@H](C)N21` [A24, (5R,8aS)-1-(1-Methanesulfonyl-1-methyl-ethyl)-5-methyl-3-(2-methylbenzimidazol-1-yl)-5,6,8a,9-tetrahydro-8H-7,10-dioxa-2,4,4b-triaza-phenanthrene], the IC50 on ATR/ATRIP was less than 1 nM; in assay [1] (Table 1, class symbols, 4-OHT), 100 to 1000 nM; in assay [2] (setting [3]), 10 to 100 nM.

For `CNc1nc2ccccc2n1-c1nc2c(c(C(C)(C)S(C)(=O)=O)n1)OC[C@@H]1COC[C@@H](C)N21` [A15, {1-[(5R,8aS)-1-(1-Methanesulfonyl-1-methyl-ethyl)-5-methyl-5,6,8a,9-tetrahydro-8H-7,10-dioxa-2,4,4b-triaza-phenanthren-3-yl]-1H-benzimidazol-2-yl}-methyl-amine], the half-inhibitory concentration (IC50) on ATR/ATRIP was less than 1 nM; in assay [1] (Table 1, class symbols, 4-OHT), less than 10 nM; in assay [1] (Table 2, 4-OHT) it was 7.4 nM; in assay [2] (setting [3]), less than 10 nM; in assay [2] (HT-29, Table 2, hydroxyurea), 2.9 nM.

As for `C[C@@H]1COC[C@H]2COc3c(nc(-c4c(N)cnc5[nH]ccc45)nc3C(C)(C)O)N21` [A21, 2-[(5R,8aS)-3-(5-Amino-1H-pyrrolo[2,3-b]pyridin-4-yl)-5-methyl-5,6,8a,9-tetrahydro-8H-7,10-dioxa-2,4,4b-triaza-phenanthren-1-yl]-propan-2-ol], the IC50 was less than 1 nM on ATR/ATRIP; 10 to 100 nM in assay [1] (Table 1, class symbols, 4-OHT); 100 to 1000 nM in assay [2] (setting [3]).

Consider `CNc1cnc2[nH]ccc2c1-c1nc2c(c(C(C)(C)O)n1)OC[C@@H]1COC[C@@H](C)N21` [A23, 2-[(5R,8aS)-5-Methyl-3-(5-methylamino-1H-pyrrolo[2,3-b]pyridin-4-yl)-5,6,8a,9-tetrahydro-8H-7,10-dioxa-2,4,4b-triaza-phenanthren-1-yl]-propan-2-ol], for which the 50% inhibitory concentration (IC50) at ATR/ATRIP fell in the range of 1 to 10 nM; in assay [1] (Table 1, class symbols, 4-OHT), 100 to 1000 nM; in assay [2] (setting [3]) it was 10 to 100 nM.

Consider `CNc1nc2c(F)cccc2n1-c1nc2c(c(C(C)(C)S(C)(=O)=O)n1)OC[C@@H]1COC[C@@H](C)N21` [A25, {4-Fluoro-1-[(5R,8aS)-1-(1-methanesulfonyl-1-methyl-ethyl)-5-methyl-5,6,8a,9-tetrahydro-8H-7,10-dioxa-2,4,4b-triaza-phenanthren-3-yl]-1H-benzimidazol-2-yl}-methyl-amine], for which the IC50 was less than 1 nM at ATR/ATRIP; 100 to 1000 nM in assay [1] (Table 1, class symbols, 4-OHT); 10 to 100 nM in assay [2] (setting [3]).

With `C[C@@H]1COC[C@H]2COc3c(nc(N(C)c4ccn[nH]4)nc3C(C)(C)S(C)(=O)=O)N21` [A74, [(5R,8aS)-1-(1-methanesulfonyl-1-methylethyl)-5-methyl-5,6,8a,9-tetrahydro-8H-7,10-dioxa-2,4,4b-triaza-phenanthren-3-yl]-methyl-(2H-pyrazol-3-yl)-amine], the IC50 (at ATR/ATRIP; in assay [2] (setting [3])) was 10 to 100 nM throughout.

On to `CNc1nc2ccccc2n1-c1nc2c(c(C3(S(C)(=O)=O)CC3)n1)OC[C@@H]1COC[C@@H](C)N21` [A26, {1-[(4bR,8S)-1-(1-Methanesulfonyl-cyclopropyl)-5-methyl-5,6,8a,9-tetrahydro-8H-7,10-dioxa-2,4,4b-triaza-phenanthren-3-yl]-1H-benzimidazol-2-yl}-methylamine], for which the IC50 is less than 1 nM on ATR/ATRIP; 10 to 100 nM in assay [1] (Table 1, class symbols, 4-OHT); 37 nM in assay [1] (Table 2, 4-OHT); 10 to 100 nM in assay [2] (setting [3]); 25 nM in assay [2] (HT-29, Table 2, hydroxyurea).

On to `C[C@@H]1COC[C@H]2COc3c(nc(-n4c(NC5COC5)nc5ccccc54)nc3C(C)(C)S(C)(=O)=O)N21` [A93, {1-[(5R,8aS)-1-(1-methanesulfonyl-1-methyl-ethyl)-5-methyl-5,6,8a,9-tetrahydro-8H-7,10-dioxa-2,4,4b-triaza-phenanthren-3-yl]-1H-benzoimidazol-2-yl}-oxetan-3-yl-amine], for which the values for the IC50 (at ATR/ATRIP; in assay [2] (setting [3])) were 1 to 10 nM and 10 to 100 nM, respectively.

Regarding `CNc1ncc2[nH]ccc2c1-c1nc2c(c(C(C)(C)S(C)(=O)=O)n1)OC[C@@H]1COC[C@@H](C)N21` [A27, {4-[(5R,8aS)-1-(1-Methanesulfonyl-1-methyl-ethyl)-5-methyl-5,6,8a,9-tetrahydro-8H-7,10-dioxa-2,4,4b-triaza-phenanthren-3-yl]-1H-pyrrolo[2,3-c]pyridin-5-yl}-methyl-amine], the IC50 at ATR/ATRIP is less than 1 nM; in assay [2] (setting [3]), less than 10 nM.

As to `C[C@@H]1COC[C@H]2COc3c(nc(-c4ccc5nc(N)ccc5c4)nc3C(C)(C)S(C)(=O)=O)N21` [A72, 6-[(5R,8aS)-1-(1-methanesulfonyl-1-methyl-ethyl)-5-methyl-5,6,8a,9-tetrahydro-8H-7,10-dioxa-2,4,4b-triaza-phenanthren-3-yl]-quinolin-2-ylamine], the figures for the IC50 (on ATR/ATRIP; in assay [2] (setting [3])) were less than 1 nM and 100 to 1000 nM, respectively.

On to `CC(C)Nc1cnc2[nH]ccc2c1-c1nc2c(c(C(C)(C)S(C)(=O)=O)n1)OC[C@@H]1COC[C@@H](C)N21` [A81, isopropyl-{4-[(S)-1-(1-methanesulfonyl-1-methyl-ethyl)-5-(R)methyl-5,6,8a,9-tetrahydro-8H-7,10-dioxa-2,4,4b-triaza-phenanthren-3-yl]-1H-pyrrolo[2,3-b]pyridin-5-yl}-amine], for which the IC50 on ATR/ATRIP fell in the range of 1 to 10 nM; in assay [2] (setting [3]), 100 to 1000 nM.

As to `C[C@@H]1COC[C@H]2COc3c(nc(-c4c(O)cnc5[nH]ccc45)nc3C3(S(C)(=O)=O)CC3)N21` [A91, 4-[(5R,8aS)-1-(1-methanesulfonyl-cyclopropyl)-5-methyl-5,6,8a,9-tetrahydro-8H-7,10-dioxa-2,4,4b-triaza-phenanthren-3-yl]-1H-pyrrolo[2,3-b]pyridin-5-ol], the figures for the IC50 (at ATR/ATRIP; in assay [2] (setting [3])) were less than 1 nM and 100 to 1000 nM, respectively.
